Measurements reported in patent US10906905B2, “Five-membered heteroaryl ring bridged ring derivative, preparation method therefor and medical use thereof” (Jiangsu Hengrui Medicine Co., Ltd., priority 2016, dated 2021).
Like-named read-outs stand apart in the source and are kept apart here.

What was measured:
TGFβRI kinase ALK5 = TGFβRI kinase ALK5 (Homo sapiens (Human), UniProt P36897); assay: Inhibition of TGFβRI kinase ALK5 activity (TGFβRI kinase assay kit, ADP-Glo); format: biochemical; conditions: ATP 50 μM; read-out: IC50 of inhibition effect on TGFβRI kinase ALK5 activity
TGFβRI kinase ALK5, sequence (P36897 34-503): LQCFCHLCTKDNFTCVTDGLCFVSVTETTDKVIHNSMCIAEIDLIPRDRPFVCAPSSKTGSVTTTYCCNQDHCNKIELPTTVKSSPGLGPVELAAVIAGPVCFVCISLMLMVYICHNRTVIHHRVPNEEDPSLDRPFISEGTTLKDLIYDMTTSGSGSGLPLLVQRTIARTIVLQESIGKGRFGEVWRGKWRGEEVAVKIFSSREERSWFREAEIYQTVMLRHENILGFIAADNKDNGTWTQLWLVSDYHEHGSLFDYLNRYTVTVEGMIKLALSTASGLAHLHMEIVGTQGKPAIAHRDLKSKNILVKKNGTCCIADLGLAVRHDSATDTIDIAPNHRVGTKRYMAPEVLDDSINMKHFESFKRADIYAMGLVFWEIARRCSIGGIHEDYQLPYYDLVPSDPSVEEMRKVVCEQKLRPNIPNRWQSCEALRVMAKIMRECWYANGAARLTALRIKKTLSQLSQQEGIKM
Description: The inhibition effect of TGFβRI kinase activity in vitro was determined by the following method.
The inhibition effect of the compounds of the present invention on TGFβRI kinase ALK5 activity was determined by the following experimental method:
TGFβRI kinase assay kit (V4093, Promega) was used to assay enzyme activity. 2 μl of enzyme solution (the final concentration of enzyme in the reaction system was 2 ng/μL) formulated with reaction buffer (40 mM Tris pH 7.5, 20 mM MgCl2, 0.1 mg/ml BSA), 1 μl of a 3-fold gradient dilution of the compounds dissolved in 5% DMSO, and 2 μl of a mixed solution of ATP and TGFβRI substrate peptide (the final concentration of ATP was 50 μM, and the final concentration of substrate was 0.2 μg/μL) were added successively to a 384-well plate (4514, Corning). After reaction at 27° C. for 2.5 hours, 5 μl of ADP-Glo solution in the kit was added to each well, then the plate was placed at 27° C. for 40 minutes. 10 μl of kinase assay reagent was then added to each well, then the plate was placed at 27° C. for 30 minutes. The chemiluminescence signal values were measured with a Victor 3 (PerkinElmer) multi-function microplate reader. The IC50 values of the compounds for enzyme inhibition were calculated using Graphpad prism software based on each concentration of the compound and the corresponding signal value thereof.

[1] = tested on: Smad signaling pathway of TGFβRI; assay: Inhibition of Smad signaling pathway of TGFβRI (3TP-lux luciferase reporter in HepG2 cell); format: cell-based; conditions: Homo sapiens, read-out: IC50 on the inhibition of Smad signaling pathway of TGFβRI
Description: The inhibition effect of the compounds of the present invention on Smad signaling pathway of TGFβRI was determined by the following in vitro test.
The inhibition effect of the compounds of the present invention on Smad signaling pathway of TGFβRI was determined by the following experimental method:
The seeding density is 2.5×10^4 cells/well. The cells were incubated overnight at 37° C., 5% CO2. Each well was replaced with fresh EMEM medium containing 10% FBS. […] The cells were further incubated for 24 hours at 37° C., 5% CO2. Each well was replaced with 90 μL of EMEM medium containing 0.5% FBS, then the cells were starved for 6 hours. The compounds were formulated as a 20 mM stock solution, which was diluted in gradient to a 400× concentration with 100% DMSO, and further 40-fold diluted with EMEM containing 0.5% FBS. The cell culture plate was taken out, then 10 μl of diluted compound or control (0.25% DMSO) was added to each well respectively. The plate was shaken gently, then incubated for 18 hours in an incubator at 37° C., 5% CO2. Finally, 100 μl of detection reagent ONE-Glo™ Luciferase Assay (E6110, Promega) was added to each well, and the plate was placed in dark at room temperature for 10 minutes. The chemiluminescence signal values were measured with a Victor 3.0 (PerkinElmer). The IC50 values of the compounds were calculated using Graphpad Prism software based on each concentration of the compound and the corresponding signal value thereof.

[2] = HepG2 cell, 3TP-lux plasmid, 18 hours

Row | Structure (SMILES) | IC50 (TGFβRI kinase ALK5) | IC50 [1, 2] | IC50 ([1]; HepG2, 18 h)
1 | Cc1cccc(-c2nc3n(c2-c2ccnc(-c4ccc(S(N)(=O)=O)cc4)c2)[C@H]2CC[C@@H]3C2)n1 [Example 13-1, 4-(4-((5S,8R)-2-(6-Methylpyridin-2-yl)-5,6,7,8-tetrahydro-5,8-methanoimidazo[1,2-a]pyridin-3-yl)pyridin-2-yl)benzenesulfonamide] | 11 nM | 37 nM | 
2 | Cc1cccc(-c2nc3n(c2-c2ccc(=O)n(C)c2)C2CCC3C2)n1 (centres unmarked) [Example 20, 1-Methyl-5-(2-(6-methylpyridin-2-yl)-5,6,7,8-tetrahydro-5,8-methanoimidazo[1,2-a]pyridin-3-yl)pyridin-2(1H)-one] |  | 53 nM | 
3 | Cc1cccc(-c2nc3n(c2-c2ccnc4ccc(C(N)=O)cc24)C2CCC3C2)n1 (centres unmarked) [Example 29, 4-(2-(6-Methylpyridin-2-yl)-5,6,7,8-tetrahydro-5,8-methanoimidazo[1,2-a]pyridin-3-yl) quinoline-6-carboxamide] | 85 nM |  | 
4 | NC(=O)c1nnc2cc(-c3c(-c4ccccn4)nc4n3[C@H]3CC[C@@H]4C3)ccn12 [Example 47-1, 7-((5S,8R)-2-(Pyridin-2-yl)-5,6,7,8-tetrahydro-5,8-methanoimidazo[1,2-a]pyridin-3-yl)-[1,2,4]triazolo[4,3-a]pyridine-3-carboxamide] | 39 nM | 53 nM | 
5 | Cc1cccc(-c2nc3n(c2-c2ccnc(-c4ccc(C(=O)NC5CCOCC5)cc4)c2)C2CCC3C2)n1 (centres unmarked) [Example 17, 4-(4-(2-(6-Methylpyridin-2-yl)-5,6,7,8-tetrahydro-5,8-methanoimidazo[1,2-a]pyridin-3-yl)pyridin-2-yl)-N-(tetrahydro-2H-pyran-4-yl)benzamide] | 38 nM |  | 
6 | Cc1cccc(-c2nc3n(c2-c2ccnc(NCCO)c2)[C@H]2CC[C@@H]3C2)n1 [Example 5-1, 2-((4-((5S,8R)-2-(6-Methylpyridin-2-yl)-5,6,7,8-tetrahydro-5,8-methanoimidazo[1,2-a]pyridin-3-yl)pyridin-2-yl)amino)ethanol] | 46 nM |  | 75 nM
7 | NC(=O)c1ccc(-c2cc(-c3c(-c4ccc(F)cn4)nc4n3[C@H]3CC[C@@H]4C3)ccn2)cc1 [Example 41-1, 4-(4-((5S,8R)-2-(5-Fluoropyridin-2-yl)-5,6,7,8-tetrahydro-5,8-methanoimidazo[1,2-a]pyridin-3-yl)pyridin-2-yl)benzamide] | 28 nM |  | 
8 | Cc1cccc(-c2nc3n(c2-c2ccnc(-c4ccc(C(=O)O)cc4)c2)C2CCC3C2)n1 (centres unmarked) [Example 19, 4-(4-(2-(6-Methylpyridin-2-yl)-5,6,7,8-tetrahydro-5,8-methanoimidazo[1,2-a]pyridin-3-yl)pyridin-2-yl)benzoic acid] | 87 nM |  | 
9 | Cc1cccc(-c2nc3n(c2-c2ccnc(NCCO)c2)C2CCC3C2)n1 (centres unmarked) [Example 5, 2-((4-(2-(6-Methylpyridin-2-yl)-5,6,7,8-tetrahydro-5,8-methanoimidazo[1,2-a]pyridin-3-yl)pyridin-2-yl)amino)ethanol] | 59 nM | 39 nM | 
10 | Cc1cccc(-c2nn3c(c2-c2ccnc4ccc(C(N)=O)cc24)C2CCC3C2)n1 (centres unmarked) [Example 35, 4-(2-(6-Methylpyridin-2-yl)-4,5,6,7-tetrahydro-4,7-methanopyrazolo[1,5-a]pyridin-3-yl)quinoline-6-carboxamide] | 12 nM |  | 
11 | Cc1cccc(-c2nn3c(c2-c2ccnc(NCCO)c2)C2CCC3CC2)n1 [Example 37, 2-((4-(2-(6-Methylpyridin-2-yl)-4,5,6,7-tetrahydro-4,7-ethanopyrazolo[1,5-a]pyridin-3-yl)pyridin-2-yl)amino)ethanol] |  | 61 nM | 
12 | Cc1cccc(-c2nn3c(c2-c2ccnc4ccc(C(N)=O)cc24)C2CCC3CC2)n1 [Example 34, 4-(2-(6-Methylpyridin-2-yl)-4,5,6,7-tetrahydro-4,7-ethanopyrazolo[1,5-a]pyridin-3-yl)quinoline-6-carboxamide] | 12 nM |  | 
13 | CS(=O)(=O)c1ccc(-c2cc(-c3c(-c4ccccn4)nc4n3[C@H]3CC[C@@H]4C3)ccn2)cc1 [Example 46-1, (5S,8R)-3-(2-(4-(Methylsulfonyl)phenyl)pyridin-4-yl)-2-(pyridin-2-yl)-5,6,7,8-tetrahydro-5,8-methanoimidazo[1,2-a]pyridine] | 34 nM | 79 nM | 
14 | Cc1cccc(-c2nc3n(c2-c2ccnc(-c4cnn(S(C)(=O)=O)c4)c2)C2CCC3C2)n1 (centres unmarked) [Example 43, 2-(6-Methylpyridin-2-yl)-3-(2-(1-(methylsulfonyl)-1H-pyrazol-4-yl)pyridin-4-yl)-5,6,7,8-tetrahydro-5,8-methanoimidazo[1,2-a]pyridine] | 21 nM |  | 11 nM
15 | Cc1cccc(-c2nc3n(c2-c2ccnc(NC(=O)OC(C)(C)C)c2)C2CCC3C2)n1 (centres unmarked) [Example 31, Tert-butyl (4-(2-(6-methylpyridin-2-yl)-5,6,7,8-tetrahydro-5,8-methanoimidazo[1,2-a]pyridin-3-yl)pyridin-2-yl)carbamate] | 55 nM |  | 
16 | Cc1cccc(-c2nc3n(c2-c2ccnc(OCCO)c2)C2CCC3C2)n1 (centres unmarked) [Example 26, 2-((4-(2-(6-Methylpyridin-2-yl)-5,6,7,8-tetrahydro-5,8-methanoimidazo[1,2-a]pyridin-3-yl)pyridin-2-yl)oxy)ethanol] |  | 86 nM | 
17 | Cc1cccc(-c2nc3n(c2-c2ccnc(N)c2)C2CCC3C2)n1 (centres unmarked) [Example 32, 4-(2-(6-Methylpyridin-2-yl)-5,6,7,8-tetrahydro-5,8-methanoimidazo[1,2-a]pyridin-3-yl)pyridin-2-amine] | 9 nM |  | 8 nM
18 | Cc1cccc(-c2nc3n(c2-c2ccnc(-c4ccc(S(C)(=O)=O)cc4)c2)C2CCC3C2)n1 (centres unmarked) [Example 3, 2-(6-Methylpyridin-2-yl)-3-(2-(4-(methylsulfonyl)phenyl)pyridin-4-yl)-5,6,7,8-tetrahydro-5,8-methanoimidazo[1,2-a]pyridine] |  | 58 nM | 
19 | Cc1cccc(-c2nc3n(c2-c2ccnc(Nc4ccc(S(N)(=O)=O)cc4)c2)C2CCC3C2)n1 (centres unmarked) [Example 14, 4-((4-(2-(6-Methylpyridin-2-yl)-5,6,7,8-tetrahydro-5,8-methanoimidazo[1,2-a]pyridin-3-yl)pyridin-2-yl)amino)benzenesulfonamide] | 31 nM |  | 81 nM
20 | Cc1cccc(-c2nc3n(c2-c2ccc4nccc(OC5CCNCC5)c4c2)C2CCC3C2)n1 (centres unmarked) [Example 15, 2-(6-Methylpyridin-2-yl)-3-(4-(piperidin-4-yloxy)quinolin-6-yl)-5,6,7,8-tetrahydro-5,8-methanoimidazo[1,2-a]pyridine] | 60 nM |  | 
21 | Cc1cccc(-c2nc3n(c2-c2ccnc(NC[C@H](C)O)c2)[C@H]2CC[C@@H]3C2)n1 [Example 18-1, (S)-1-((4-((5S,8R)-2-(6-Methylpyridin-2-yl)-5,6,7,8-tetrahydro-5,8-methanoimidazo[1,2-a]pyridin-3-yl)pyridin-2-yl)amino)propan-2-ol] | 80 nM | 88 nM | 
22 | Cc1cccc(-c2nc3n(c2-c2ccc4nnc(C(N)=O)n4c2)[C@@H]2CC[C@H]3C2)n1 [Example 2-2, 6-((5R,8S)-2-(6-Methylpyridin-2-yl)-5,6,7,8-tetrahydro-5,8-methanoimidazo[1,2-a]pyridin-3-yl)[1,2,4]triazolo[4,3-a]pyridine-3-carboxamide] | 3 nM | 36 nM | 
